Data from ChEMBL document CHEMBL3407338, “Synthesis and structure-activity relationship of novel 1,4-diazabicyclo[2.2.2]octane derivatives as potent antimicrobial agents” (Eur J Med Chem, 2015).
Values belong to the molecule of their own block, whether it stands above or below them.

Experiments:
[1] = test system: Bacillus subtilis; test: Antimicrobial activity against Bacillus subtilis ATCC 6633 at 1 ug/ml after 24 hrs by agar diffusion method; type: functional; conditions: ATCC 6633, 24 h, read-out: DIZ
[2] = test system: Staphylococcus aureus; test: Antimicrobial activity against Staphylococcus aureus ATCC 25923 at 1 ug/ml after 24 hrs by agar diffusion method; type: functional; conditions: ATCC 25923, 24 h, read-out: DIZ
[3] = test system: Pseudomonas aeruginosa; test: Antimicrobial activity against Pseudomonas aeruginosa ATCC 9027 at 1 ug/ml after 24 hrs by agar diffusion method; type: functional; conditions: ATCC 9027, 24 h, read-out: DIZ
[4] = test system: Salmonella enterica; test: Antimicrobial activity against Salmonella enterica ATCC 14028 at 1 ug/ml after 24 hrs by agar diffusion method; type: functional; conditions: ATCC 14028, 24 h, read-out: DIZ
[5] = test system: Escherichia coli; test: Antimicrobial activity against Escherichia coli ATCC 25922 at 1 ug/ml after 24 hrs by agar diffusion method; type: functional; conditions: ATCC 25922, 24 h, read-out: DIZ
[6] = test system: Candida albicans; test: Antimicrobial activity against Candida albicans ATCC 32354 at 1 ug/ml after 24 hrs by agar diffusion method; type: functional; conditions: ATCC 32354, 24 h, read-out: DIZ
[7] = test system: Bacillus subtilis; test: Antimicrobial activity against 10^4 CFU/ml Bacillus subtilis ATCC 6633 after 22 hrs by serial microdilution method; type: functional; conditions: ATCC 6633, 22 h
[8] = test system: Bacillus subtilis; test: Antimicrobial activity against 10^7 CFU/ml Bacillus subtilis ATCC 6633 after 22 hrs by serial microdilution method; type: functional; conditions: ATCC 6633, 22 h
[9] = test system: Pseudomonas aeruginosa; test: Antimicrobial activity against 10^4 CFU/ml Pseudomonas aeruginosa ATCC 9027 after 22 hrs by serial microdilution method; type: functional; conditions: ATCC 9027, 22 h
[10] = test system: Pseudomonas aeruginosa; test: Antimicrobial activity against 10^7 CFU/ml Pseudomonas aeruginosa ATCC 9027 after 22 hrs by serial microdilution method; type: functional; conditions: ATCC 9027, 22 h
[11] = test system: Staphylococcus aureus; test: Antimicrobial activity against 10^4 CFU/ml Staphylococcus aureus ATCC 25923 after 22 hrs by serial microdilution method; type: functional; conditions: ATCC 25923, 22 h
[12] = test system: Staphylococcus aureus; test: Antimicrobial activity against 10^7 CFU/ml Staphylococcus aureus ATCC 25923 after 22 hrs by serial microdilution method; type: functional; conditions: ATCC 25923, 22 h
[13] = test system: Escherichia coli; test: Antimicrobial activity against 10^4 CFU/ml Escherichia coli ATCC 25922 after 22 hrs by serial microdilution method; type: functional; conditions: ATCC 25922, 22 h
[14] = test system: Escherichia coli; test: Antimicrobial activity against 10^7 CFU/ml Escherichia coli ATCC 25922 after 22 hrs by serial microdilution method; type: functional; conditions: ATCC 25922, 22 h
[15] = test system: Salmonella enterica; test: Antimicrobial activity against 10^4 CFU/ml Salmonella enterica ATCC 14028 after 22 hrs by serial microdilution method; type: functional; conditions: ATCC 14028, 22 h
[16] = test system: Salmonella enterica; test: Antimicrobial activity against 10^7 CFU/ml Salmonella enterica ATCC 14028 after 22 hrs by serial microdilution method; type: functional; conditions: ATCC 14028, 22 h
[17] = test system: Candida albicans; test: Antimicrobial activity against 10^4 CFU/ml Candida albicans ATCC 32354 after 22 hrs by serial microdilution method; type: functional; conditions: ATCC 32354, 22 h
[18] = test system: Candida albicans; test: Antimicrobial activity against 10^7 CFU/ml Candida albicans ATCC 32354 after 22 hrs by serial microdilution method; type: functional; conditions: ATCC 32354, 22 h
[19] = test system: Pseudomonas aeruginosa; test: Antimicrobial activity against 10^4 CFU/ml Pseudomonas aeruginosa ATCC 9027 assessed as reduction in CFU/ml at measured at 10 ug/ml after 2.5 hrs by time-kill kinetic study relative to control; type: functional; design: scale not given: the % may be the effect or the level left
[20] = test system: Pseudomonas aeruginosa; test: Antimicrobial activity against 10^4 CFU/ml Pseudomonas aeruginosa ATCC 9027 assessed as reduction in CFU/ml at measured at 10 ug/ml after 5 hrs by time-kill kinetic study relative to control; type: functional; design: scale not given: the % may be the effect or the level left
[21] = test system: Pseudomonas aeruginosa; test: Antimicrobial activity against 10^4 CFU/ml Pseudomonas aeruginosa ATCC 9027 assessed as reduction in CFU/ml at measured at 10 ug/ml after 22 hrs by time-kill kinetic study relative to control; type: functional; design: scale not given: the % may be the effect or the level left
[22] = test system: Staphylococcus aureus; test: Antimicrobial activity against 10^4 CFU/ml Staphylococcus aureus ATCC 25923 assessed as reduction in CFU/ml at measured at 10 ug/ml after 2.5 hrs by time-kill kinetic study relative to control; type: functional; design: scale not given: the % may be the effect or the level left
[23] = test system: Staphylococcus aureus; test: Antimicrobial activity against 10^4 CFU/ml Staphylococcus aureus ATCC 25923 assessed as reduction in CFU/ml at measured at 10 ug/ml after 5 hrs by time-kill kinetic study relative to control; type: functional; design: scale not given: the % may be the effect or the level left
[24] = test system: Staphylococcus aureus; test: Antimicrobial activity against 10^4 CFU/ml Staphylococcus aureus ATCC 25923 assessed as reduction in CFU/ml at measured at 10 ug/ml after 22 hrs by time-kill kinetic study relative to control; type: functional; design: scale not given: the % may be the effect or the level left
[25] = test system: Pseudomonas aeruginosa; test: Antimicrobial activity against 10^7 CFU/ml Pseudomonas aeruginosa ATCC 9027 assessed as reduction in CFU/ml at measured at 10 ug/ml after 2.5 hrs by time-kill kinetic study relative to control; type: functional; design: scale not given: the % may be the effect or the level left
[26] = test system: Pseudomonas aeruginosa; test: Antimicrobial activity against 10^7 CFU/ml Pseudomonas aeruginosa ATCC 9027 assessed as reduction in CFU/ml at measured at 10 ug/ml after 5 hrs by time-kill kinetic study relative to control; type: functional; design: scale not given: the % may be the effect or the level left
[27] = test system: Pseudomonas aeruginosa; test: Antimicrobial activity against 10^7 CFU/ml Pseudomonas aeruginosa ATCC 9027 assessed as reduction in CFU/ml at measured at 10 ug/ml after 22 hrs by time-kill kinetic study relative to control; type: functional; design: scale not given: the % may be the effect or the level left
[28] = test system: Staphylococcus aureus; test: Antimicrobial activity against 10^7 CFU/ml Staphylococcus aureus ATCC 25923 assessed as reduction in CFU/ml at measured at 10 ug/ml after 2.5 hrs by time-kill kinetic study relative to control; type: functional; design: scale not given: the % may be the effect or the level left
[29] = test system: Staphylococcus aureus; test: Antimicrobial activity against 10^7 CFU/ml Staphylococcus aureus ATCC 25923 assessed as reduction in CFU/ml at measured at 10 ug/ml after 5 hrs by time-kill kinetic study relative to control; type: functional; design: scale not given: the % may be the effect or the level left
[30] = test system: Staphylococcus aureus; test: Antimicrobial activity against 10^7 CFU/ml Staphylococcus aureus ATCC 25923 assessed as reduction in CFU/ml at measured at 10 ug/ml after 22 hrs by time-kill kinetic study relative to control; type: functional; design: scale not given: the % may be the effect or the level left
[31] = test system: RPMI-8226; test: Cytotoxicity against human RPMI8226 cells after 72 hrs by MTT assay; type: cell-based; conditions: RPMI-8226, 72 h
[32] = Cytotoxicity against mouse LMTK cells after 72 hrs by MTT assay; type: cell-based; conditions: L-M(TK-)
[33] = test system: HEK-293T; test: Cytotoxicity against human HEK293T cells after 72 hrs by MTT assay; type: cell-based
[34] = test system: MEF; test: Cytotoxicity against mouse MEF cells after 72 hrs by MTT assay; type: cell-based

- MIC [7]: < 1.6 µg/mL
- MIC [8]: 3.1 µg/mL
- MIC [9]: 1.6 µg/mL
- MIC [10]: 12.5 µg/mL
- MIC [11]: 3.1 µg/mL
- MIC [12]: 6.3 µg/mL
- MIC [13]: 6.3 µg/mL
- MIC [14]: 6.3 µg/mL
- MIC [15]: 12.5 µg/mL
- MIC [16]: 12.5 µg/mL
- MIC [17]: < 1.6 µg/mL
- MIC [18]: < 1.6 µg/mL
SMILES: CCCCCCCCCC[N+]12CC[N+](CCCCC[N+]34CC[N+](CCCCCCCCCC)(CC3)CC4)(CC1)CC2.[Br-].[Br-].[Br-].[Br-]
- zone of inhibition at 1 µg/mL [1]: 10 mm
- zone of inhibition at 1 µg/mL [2]: 10 mm
- zone of inhibition at 1 µg/mL [3]: 6 mm
- zone of inhibition at 1 µg/mL [4]: 7 mm
- zone of inhibition at 1 µg/mL [5]: 10 mm
- zone of inhibition at 1 µg/mL [6]: 10 mm
- MBC [7]: < 1.6 µg/mL
- MBC [8]: 3.1 µg/mL
- MBC [9]: 1.6 µg/mL
- MBC [10]: 25 µg/mL
- MBC [11]: 12.5 µg/mL
- MBC [12]: 6.3 µg/mL
- MBC [13]: 6.3 µg/mL
- MBC [14]: 12.5 µg/mL
- MBC [15]: 25 µg/mL
- MBC [16]: 50 µg/mL
- MBC [17]: < 1.6 µg/mL
- MBC [18]: < 1.6 µg/mL
- Activity [19]: 62.3%
- Activity [20]: 99.2%
- Activity [21]: 25%
- Activity [22]: 100%
- Activity [23]: 100%
- Activity [24]: 100%
- Activity [25]: 0%
- Activity [26]: 43%
- Activity [27]: 0%
- Activity [28]: 100%
- Activity [29]: 100%
- Activity [30]: 100%
- IC50 [31]: 45.2 µg/mL
- IC50 [32]: 56.4 µg/mL
- IC50 [33]: 93.8 µg/mL
- IC50 [34]: 23.4 µg/mL

- MIC [7]: < 1.6 µg/mL
- MIC [8]: 3.1 µg/mL
- MIC [9]: < 1.6 µg/mL
- MIC [10]: 6.3 µg/mL
- MIC [11]: 3.1 µg/mL
- MIC [12]: 6.3 µg/mL
- MIC [13]: 3.1 µg/mL
- MIC [14]: 6.3 µg/mL
- MIC [15]: 25 µg/mL
- MIC [16]: 25 µg/mL
- MIC [17]: 3.1 µg/mL
- MIC [18]: 12.5 µg/mL
SMILES: CCCCCCCCCCCC[N+]12CC[N+](CCCCC[N+]34CC[N+](CCCCCCCCCCCC)(CC3)CC4)(CC1)CC2.[Br-].[Br-].[Cl-].[Cl-]
- zone of inhibition at 1 µg/mL [1]: 10 mm
- zone of inhibition at 1 µg/mL [2]: 10 mm
- zone of inhibition at 1 µg/mL [3]: 7 mm
- zone of inhibition at 1 µg/mL [4]: 7 mm
- zone of inhibition at 1 µg/mL [5]: 9 mm
- zone of inhibition at 1 µg/mL [6]: 10 mm
- MBC [7]: < 1.6 µg/mL
- MBC [8]: 3.1 µg/mL
- MBC [9]: < 1.6 µg/mL
- MBC [10]: 6.3 µg/mL
- MBC [11]: 6.3 µg/mL
- MBC [12]: 12.5 µg/mL
- MBC [13]: 3.1 µg/mL
- MBC [14]: 6.3 µg/mL
- MBC [15]: 25 µg/mL
- MBC [16]: 50 µg/mL
- MBC [17]: 6.3 µg/mL
- MBC [18]: 12.5 µg/mL
- Activity [19]: 99.9%
- Activity [20]: 100%
- Activity [21]: 100%
- Activity [22]: 100%
- Activity [23]: 100%
- Activity [24]: 100%
- Activity [25]: 100%
- Activity [26]: 100%
- Activity [27]: 100%
- Activity [28]: 100%
- Activity [29]: 100%
- Activity [30]: 100%
- IC50 [31]: 11.7 µg/mL
- IC50 [32]: 25.6 µg/mL
- IC50 [33]: 23.4 µg/mL
- IC50 [34]: 12.7 µg/mL
